The source of these data is patent US8399206B2, “Methods for diagnosis, prognosis and methods of treatment” (Nodality, Inc., priority 2008, dated 2013).

Each structure is given as a SMILES string.

What all share (assay type): cell-based, human
One assay relates to AML leukemic cells. The experiment in a line: Apoptosis/cytostasis arm: 48-hr kinase inhibitor incubation of AML cells (cleaved PARP, CyclinB1, p-Histone H3). Conditions: 1 μM; two samples with the greatest SCF and G-CSF signaling response and most robust proliferation. The method, then: The TKIs impact was measured on distal functional readouts, including apoptosis (cleaved PARP) and cell cycle (CyclinB1-S/G2 phase; p-Histone H3-M phase). All results were compared with results from bone marrow samples from healthy donors (N=6).

Assay [1] relates to FLT3-WT and FLT3-ITD AML leukemic blasts. The experiment in a line: SCNP signaling and apoptosis in FLT3-WT versus FLT3-ITD AML samples (Example 9). Conditions: FLT3-ITD vs FLT3-WT samples, study 1 and study 2. From the text: This example identifies intracellular signaling pathways associated with FLT3 ITD in two independent cohorts of diagnostic AML samples that serve as an improvement over current clinical tools in the identification of clinically meaningful altered FLT 3 and has implications for cohort selection in the development of FLT3 inhibitors. The two cohorts of data were further analyzed to investigate the differences in signaling between FLT-WT and FLT-ITD samples. The first cohort of data (“study 1”) comprised the 34 samples from University Health Network outlined in Table 16 and Table 19. The second cohort of data (“study 2”) comprised an 83 sample subset of MD Anderson Cancer Center data outlined in Table 16 (and Table 19). The 83 sample subset was selected based on known FLT3 mutation status. Both cohorts of data were used to investigate differences in FLT3 signaling between leukemic blasts and control data.
In order to further characterize wild-type FLT receptor signaling in AML, we compared FLT3L-induced signaling in the myeloblast population of control BMMC samples with FLT3L-induced signaling in the leukemic blast population of FLT3-WT AML samples.
Univariate analysis, unadjusted for multiple testing, was performed sequentially and independently on the two study cohorts in order to identify signaling nodes that distinguished with FLT3-ITD from FLT3-WT AML patient samples. […] Results from both studies include the AUC, Wilcoxon and t-test p-value for each node, and the number/mean value of the samples in the FLT3-ITD and FLT3-WT AML groups with common stratifying nodes summarized in FIG. 23. Although the majority of the discussion herein is directed to nodes that had similar reponses within the two cohorts of data, some differences were observed between the two cohorts of data. These differences may have been due to the different clinical characteristics of the two cohorts of data, specifically biases in the data from UHN.

Assay [2] relates to AML BMMC leukemic blasts. The experiment in a line: Functional apoptosis assay, AML study No. 2 (etoposide or Ara-C and daunorubicin, 24 hours). Conditions: patients younger than 60 years old. The method, then: Multi-parameter flow cytometric analysis was performed on BMMC samples taken at diagnosis from 61 AML patients. The samples were balanced for complete response (CR) and non-responders (NR) after 1 to 3 cycles of induction therapy and de novo versus secondary AML. Nodes in Tables 2 to 10 were examined.
Functional assays were performed as previously described. […]
The median fluorescence intensity (MFI) was computed for each node from the fluorescence intensity levels for the cells in the myeloid population. The MFI values were then used to compute a variety of metrics by comparing them to baseline or background values, including the unmodulated condition, cellular autofluorescence and antibody isotype controls. The following metrics were computed: • 1. Basal MFI (“Basal”)=log2(MFIUnmodulated Stained)−log2(MFIGated Unstained (Autofluoresence)), designed to measure the basal levels of a certain protein under unmodulated conditions. • 2. Fold Change MFI (“Fold”)=log2(MFIModulated Stained)−log2(MFIUnmodulated Stained), a measure of the change in the activation state of a protein under modulated conditions. • 3. Total Phospho MFI (“TotalPhospho”)=log2(MFIModulated Stained)−log2(MFIGated Unstained (Autofluorescence)), a measure of the total levels of a protein under modulated conditions. • 4. […]

Assay [3] deals with pediatric AML leukemic blasts. The experiment in a line: SCNP assay on pediatric AML bone marrow samples, POG trial 9421 (Example 11).
Description: SCNP assays were performed on 77 bone marrow samples from pediatric AML patients enrolled in POG trial 9421 of which 67 were evaluable/had sufficient data for analysis and were enriched for non-responders (NR). 80 combinations of modulators and intra-cellular proteins (signaling nodes) were investigated including nodes involved in the phosphoinositide 3-kinase (PI3K), Janus Kinases (JAK), signal transducers and activators of transcription (STAT) and the DNA damage response and apoptosis pathways. Basal and modulated protein levels in leukemic blasts were measured using several metrics (e.g., fold change, total level of phosphorylation, and a rank based method Uu measuring the proportion of cells that shift from baseline), and nodes were examined in univariate and multivariate analyses for their ability to discriminate between AML responsive (CR, n=46) and non-responsive (NR, n=21) to anthracycline/cytarabine-based induction therapy. Furthermore, nodes were examined for their ability to identify patients likely to be in complete continuous remission (CCR, n=23) or relapse (CR-Rel, n=23) within 4 years.
The next assay relates to AML blasts. Description: SCNP / phospho-flow modulated signaling assay, AML study No. 1 (PBMC at diagnosis, CR vs NR). Conditions: Study No. 1 sensitivity analysis.
Assay [4] relates to AML BMMC leukemic blasts. Description: SCNP modulated signaling assay, AML study No. 2 (BMMC, CR vs NR, clinical sub-groups). Conditions: Study No. 2, all patients.

`C[C@@H]1CCN(C(=O)CC#N)C[C@@H]1N(C)c1ncnc2[nH]ccc12` [CP-690,550]: in the assay with AML leukemic cells, the “sensitivity to kinase inhibitor as measured by cytostasis readouts” value is recorded as “most sensitive”.
In the case of `COc1cc([C@@H]2c3cc4c(cc3[C@@H](O[C@@H]3O[C@@H]5CO[C@@H](C)O[C@H]5[C@H](O)[C@H]3O)[C@H]3COC(=O)[C@H]23)OCO4)cc(OC)c1O` [Etoposide], the “in vitro apoptosis (etoposide→c-PARP|Total)” value in assay [1] is “more sensitive to in vitro apoptosis than FLT3-WT samples”. Moreover, in the assay on AML BMMC leukemic blasts [2], the “induced apoptosis, CR vs NR” value is “CRs induce apoptosis to Etoposide or Ara-C/Daunorubicin more than NRs”. Also, the “apoptotic response (c-PARP, p-Chk2), CR vs NR” value in assay [3] (CR n=46, NR n=21) is “higher levels of apoptosis in CR samples than in NR samples”.
Take `C/C=C(/C)C(=O)O[C@H]1C(C)=C2[C@H]([C@@H]1OC(=O)CCCCCCC)[C@@](C)(OC(C)=O)C[C@H](OC(=O)CCC)[C@@]1(O)[C@H]2OC(=O)[C@@]1(C)O` [Thapsigargin, reference compound]: in the assay with AML blasts (CR samples), the “Mean Value of CRs, p-CREB Total Phospho” value is listed as 1.79; the “Mean Value of CRs, p-S6 Fold” value turned out to be 0.03; the “Mean Value of CRs, p-S6 Total Phospho” value is reported as 0.31. In addition, in the assay on AML blasts (NR samples incl. CRp), the “Mean Value of NRs, p-CREB Total Phospho” value is 2.77; the “Mean Value of NRs, p-S6 Fold” value is 0.31; the “Mean Value of NRs, p-S6 Total Phospho” value is 0.67. Also, in assay [3] (relapse vs complete continuous remission (CCR)), the “induction of p-Erk, p-CREB and p-S6” value is reported as “less in CR-Rd than in CCR samples”. Moreover, the “Mean Value of CRs, p-Erk Fold” value in the assay with AML BMMC leukemic blasts [4] (CR samples) was 1.22. The “Mean Value of NRs, p-Erk Fold” value in the assay on AML BMMC leukemic blasts [4] (NR samples) is on record as 0.36.
